From PubChem BioAssay AID248 (DTP/NCI, 2004)
Values joined by “and” are separate entries in the source; they are usually repeats but may differ in a detail not shown here. Equal entries are not always repeated. Toxic doses and inconclusive results are not listed.

System: L1210 leukemia ip in BDF1 mice, survival T/C
Assay: NCI In Vivo Anticancer Drug Screen. Data for tumor model L1210 Leukemia (intraperitoneal) in B6D2F1 (BDF1) mice
Settings: higher = longer survival
In short: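 Mice bearing the transplanted tumor received compound or vehicle. Survival of the treated group was divided by that of the vehicle-treated control group to give the ratio.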

For `CC(CN1CC(=O)NC(=O)C1)N1CC(=O)NC(=O)C1` (stereo not drawn), the T/C (endpoint: mean survival time, dose: 1.6 mg/kg/injection, schedule: Q03HX016 (oral), vehicle: steriod suspending solution) was 122 % of control, the T/C (endpoint: mean survival time, dose: 1.6 mg/kg/injection, schedule: Q03HX024 (ip), vehicle: steriod suspending solution) was 156 % of control and the T/C (endpoint: mean survival time, dose: 1.6 mg/kg/injection, schedule: Q03HX024 (oral), vehicle: steriod suspending solution) was 124 % of control. The T/C (endpoint: mean survival time, dose: 6.25 mg/kg/injection, schedule: Q03HX008 (ip), vehicle: steriod suspending solution) was 118 % of control, the T/C (endpoint: mean survival time, dose: 12.5 mg/kg/injection, schedule: Q01DX009 (oral), vehicle: steriod suspending solution) was 156 % of control and the T/C (endpoint: mean survival time, dose: 12.5 mg/kg/injection, schedule: Q01DX009 (sc), vehicle: steriod suspending solution) was 117 % of control. For the same compound, the T/C (endpoint: mean survival time, dose: 12.5 mg/kg/injection, schedule: Q01DX Z (ip), vehicle: steriod suspending solution) was 154 % of control, the T/C (endpoint: mean survival time, dose: 12.5 mg/kg/injection, schedule: Q03HX024 (oral), vehicle: steriod suspending solution) was 101 % of control and the T/C (endpoint: mean survival time, dose: 12.5 mg/kg/injection, schedule: Q04DX003 (ip), vehicle: steriod suspending solution) was 109 % of control. The T/C (endpoint: mean survival time, dose: 18.0 mg/kg/injection, schedule: Q01DX009 (ip), vehicle: saline) was 151 % of control, the T/C (endpoint: mean survival time, dose: 25.0 mg/kg/injection, schedule: Q03HX008 (ip), vehicle: steriod suspending solution) was 155 % of control and the T/C (endpoint: mean survival time, dose: 25.0 mg/kg/injection, schedule: Q04DX003 (ip), vehicle: Klucel (hydroxypropylcellulose) (HPC)) was 109 % of control. The T/C (endpoint: mean survival time, dose: 25.0 mg/kg/injection, schedule: Q04DX003 (ip), vehicle: steriod suspending solution) was 103 % of control, the T/C (endpoint: mean survival time, dose: 25.0 mg/kg/injection, schedule: Q04DX003 (iv), vehicle: water) was 113 % of control and 122 % of control and the T/C (endpoint: mean survival time, dose: 25.0 mg/kg/injection, schedule: Q04DX003 (oral), vehicle: steriod suspending solution) was 115 % of control. For the same compound, the T/C (endpoint: mean survival time, dose: 27.0 mg/kg/injection, schedule: Q01DX009 (ip), vehicle: saline) was 155 % of control, the T/C (endpoint: mean survival time, dose: 32.0 mg/kg/injection, schedule: Q04DX003 (ip), vehicle: saline with Tween-80) was 104 % of control and the T/C (endpoint: mean survival time, dose: 50.0 mg/kg/injection, schedule: Q01DX001 (ip), vehicle: saline) was 107 % of control. For the same compound, the T/C (endpoint: mean survival time, dose: 50.0 mg/kg/injection, schedule: Q01DX001 (ip), vehicle: steriod suspending solution) was 107 % of control, the T/C (endpoint: mean survival time, dose: 50.0 mg/kg/injection, schedule: Q01DX009 (oral), vehicle: steriod suspending solution) was 98 % of control and 121 % of control and the T/C (endpoint: mean survival time, dose: 50.0 mg/kg/injection, schedule: Q03HX024 (ip), vehicle: steriod suspending solution) was 104 % of control. The T/C (endpoint: mean survival time, dose: 50.0 mg/kg/injection, schedule: Q04DX003 (ip), vehicle: steriod suspending solution) was 100 % of control, the T/C (endpoint: mean survival time, dose: 50.0 mg/kg/injection, schedule: Q04DX003 (iv), vehicle: water) was 112 % of control and 115 % of control and 122 % of control and the T/C (endpoint: mean survival time, dose: 50.0 mg/kg/injection, schedule: Q06HX012 (oral), vehicle: steriod suspending solution) was 101 % of control. For the same compound, the T/C (endpoint: mean survival time, dose: 60.0 mg/kg/injection, schedule: Q01DX009 (ip), vehicle: saline with Tween-80) was 156 % of control, the T/C (endpoint: mean survival time, dose: 64.0 mg/kg/injection, schedule: Q04DX003 (ip), vehicle: saline with Tween-80) was 124 % of control and the T/C (endpoint: mean survival time, dose: 100.0 mg/kg/injection, schedule: Q01DX001 (ip), vehicle: saline) was 113 % of control. For the same compound, the T/C (endpoint: mean survival time, dose: 100.0 mg/kg/injection, schedule: Q01DX001 (oral), vehicle: steriod suspending solution) was 111 % of control, the T/C (endpoint: mean survival time, dose: 100.0 mg/kg/injection, schedule: Q01DX009 (oral), vehicle: steriod suspending solution) was 95 % of control and 103 % of control and the T/C (endpoint: mean survival time, dose: 100.0 mg/kg/injection, schedule: Q01DX Z (ip), vehicle: steriod suspending solution) was 113 % of control. For the same compound, the T/C (endpoint: mean survival time, dose: 100.0 mg/kg/injection, schedule: Q04DX003 (ip), vehicle: steriod suspending solution) was 151 % of control, the T/C (endpoint: mean survival time, dose: 100.0 mg/kg/injection, schedule: Q04DX003 (iv), vehicle: water) was 112 % of control and 115 % of control and 119 % of control and the T/C (endpoint: mean survival time, dose: 100.0 mg/kg/injection, schedule: Q08DX002 (ip), vehicle: steriod suspending solution) was 151 % of control. For the same compound, the T/C (endpoint: mean survival time, dose: 100.0 mg/kg/injection, schedule: Q08DX002 (oral), vehicle: steriod suspending solution) was 122 % of control, the T/C (endpoint: mean survival time, dose: 120.0 mg/kg/injection, schedule: Q01DX009 (ip), vehicle: saline with Tween-80) was 118 % of control and the T/C (endpoint: mean survival time, dose: 128.0 mg/kg/injection, schedule: Q01DX009 (ip), vehicle: saline with Tween-80) was 112 % of control. For the same compound, the T/C (endpoint: mean survival time, dose: 128.0 mg/kg/injection, schedule: Q04DX003 (oral), vehicle: saline with Tween-80) was 155 % of control, the T/C (endpoint: mean survival time, dose: 200.0 mg/kg/injection, schedule: Q01DX001 (ip), vehicle: saline) was 120 % of control and the T/C (endpoint: mean survival time, dose: 200.0 mg/kg/injection, schedule: Q01DX001 (oral), vehicle: steriod suspending solution) was 107 % of control. The T/C (endpoint: mean survival time, dose: 200.0 mg/kg/injection, schedule: Q04DX003 (oral), vehicle: steriod suspending solution) was 153 % of control, the T/C (endpoint: mean survival time, dose: 200.0 mg/kg/injection, schedule: Q08DX002 (oral), vehicle: steriod suspending solution) was 120 % of control and the T/C (endpoint: mean survival time, dose: 240.0 mg/kg/injection, schedule: Q01DX009 (ip), vehicle: saline with Tween-80) was 96 % of control. The T/C (endpoint: mean survival time, dose: 400.0 mg/kg/injection, schedule: Q01DX001 (oral), vehicle: steriod suspending solution) was 114 % of control, the T/C (endpoint: mean survival time, dose: 400.0 mg/kg/injection, schedule: Q04DX003 (oral), vehicle: steriod suspending solution) was 155 % of control and the T/C (endpoint: mean survival time, dose: 400.0 mg/kg/injection, schedule: Q08DX002 (ip), vehicle: steriod suspending solution) was 156 % of control. The T/C (endpoint: mean survival time, dose: 400.0 mg/kg/injection, schedule: Q08DX002 (oral), vehicle: steriod suspending solution) was 119 % of control, the T/C (endpoint: mean survival time, dose: 512.0 mg/kg/injection, schedule: Q04DX003 (ip), vehicle: saline with Tween-80) was 155 % of control and the T/C (endpoint: mean survival time, dose: 800.0 mg/kg/injection, schedule: Q04DX003 (ip), vehicle: Klucel (hydroxypropylcellulose) (HPC)) was 154 % of control. The T/C (endpoint: mean survival time, dose: 800.0 mg/kg/injection, schedule: Q04DX003 (ip), vehicle: water) was 120 % of control, the T/C (endpoint: mean survival time, dose: 800.0 mg/kg/injection, schedule: Q08DX002 (ip), vehicle: steriod suspending solution) was 111 % of control and the T/C (endpoint: mean survival time, dose: 1024.0 mg/kg/injection, schedule: Q04DX003 (oral), vehicle: saline with Tween-80) was 120 % of control. The T/C (endpoint: mean survival time, dose: 2048.0 mg/kg/injection, schedule: Q04DX003 (oral), vehicle: saline with Tween-80) was 94 % of control, the T/C (endpoint: median survival time, dose: 4.0 mg/kg/injection, schedule: Q03HX024 (ip), vehicle: Klucel (hydroxypropylcellulose) (HPC)) was 153 % of control and the T/C (endpoint: median survival time, dose: 8.0 mg/kg/injection, schedule: Q01DX009 (sc), vehicle: saline with Tween-80) was 120 % of control. The T/C (endpoint: median survival time, dose: 8.0 mg/kg/injection, schedule: Q03HX008 (ip), vehicle: saline with Tween-80) was 156 % of control, the T/C (endpoint: median survival time, dose: 12.5 mg/kg/injection, schedule: Q01DX009 (ip), vehicle: Klucel (hydroxypropylcellulose) (HPC)) was 150 % of control and the T/C (endpoint: median survival time, dose: 12.5 mg/kg/injection, schedule: Q03HX008 (ip), vehicle: Klucel (hydroxypropylcellulose) (HPC)) was 150 % of control. For the same compound, the T/C (endpoint: median survival time, dose: 16.0 mg/kg/injection, schedule: Q03HX008 (ip), vehicle: saline with Tween-80) was 154 % of control, the T/C (endpoint: median survival time, dose: 16.0 mg/kg/injection, schedule: Q03HX024 (ip), vehicle: saline with Tween-80) was 113 % of control and the T/C (endpoint: median survival time, dose: 25.0 mg/kg/injection, schedule: Q01DX009 (ip), vehicle: Klucel (hydroxypropylcellulose) (HPC)) was 150 % of control. For the same compound, the T/C (endpoint: median survival time, dose: 25.0 mg/kg/injection, schedule: Q03HX008 (ip), vehicle: Klucel (hydroxypropylcellulose) (HPC)) was 151 % of control and 155 % of control, the T/C (endpoint: median survival time, dose: 45.0 mg/kg/injection, schedule: Q03HX024 (ip), vehicle: Klucel (hydroxypropylcellulose) (HPC)) was 155 % of control and the T/C (endpoint: median survival time, dose: 50.0 mg/kg/injection, schedule: Q03HX008 (ip), vehicle: Klucel (hydroxypropylcellulose) (HPC)) was 115 % of control. The T/C (endpoint: median survival time, dose: 64.0 mg/kg/injection, schedule: Q01DX001 (ip), vehicle: saline with Tween-80) was 105 % of control, the T/C (endpoint: median survival time, dose: 64.0 mg/kg/injection, schedule: Q03HX008 (ip), vehicle: saline with Tween-80) was 156 % of control and the T/C (endpoint: median survival time, dose: 64.0 mg/kg/injection, schedule: Q03HX016 (ip), vehicle: saline with Tween-80) was 96 % of control. The T/C (endpoint: median survival time, dose: 64.0 mg/kg/injection, schedule: Q08DX002 (ip), vehicle: saline with Tween-80) was 109 % of control, the T/C (endpoint: median survival time, dose: 100.0 mg/kg/injection, schedule: Q01DX001 (ip), vehicle: other) was 122 % of control and the T/C (endpoint: median survival time, dose: 100.0 mg/kg/injection, schedule: Q01DX001 (ip), vehicle: steriod suspending solution) was 122 % of control. For the same compound, the T/C (endpoint: median survival time, dose: 100.0 mg/kg/injection, schedule: Q04DX003 (ip), vehicle: other) was 122 % of control, the T/C (endpoint: median survival time, dose: 108.0 mg/kg/injection, schedule: Q01DX001 (ip), vehicle: Klucel (hydroxypropylcellulose) (HPC)) was 114 % of control and 120 % of control and the T/C (endpoint: median survival time, dose: 128.0 mg/kg/injection, schedule: Q01DX001 (ip), vehicle: saline with Tween-80) was 109 % of control. For the same compound, the T/C (endpoint: median survival time, dose: 128.0 mg/kg/injection, schedule: Q01DX009 (sc), vehicle: saline with Tween-80) was 107 % of control, the T/C (endpoint: median survival time, dose: 128.0 mg/kg/injection, schedule: Q04DX003 (ip), vehicle: saline with Tween-80) was 124 % of control and the T/C (endpoint: median survival time, dose: 128.0 mg/kg/injection, schedule: Q08DX002 (ip), vehicle: saline with Tween-80) was 119 % of control. The T/C (endpoint: median survival time, dose: 168.0 mg/kg/injection, schedule: Q04DX003 (ip), vehicle: Klucel (hydroxypropylcellulose) (HPC)) was 152 % of control and 155 % of control, the T/C (endpoint: median survival time, dose: 180.0 mg/kg/injection, schedule: Q01DX001 (ip), vehicle: Klucel (hydroxypropylcellulose) (HPC)) was 118 % of control and 120 % of control and the T/C (endpoint: median survival time, dose: 200.0 mg/kg/injection, schedule: Q01DX001 (ip), vehicle: steriod suspending solution) was 155 % of control. The T/C (endpoint: median survival time, dose: 256.0 mg/kg/injection, schedule: Q01DX001 (ip), vehicle: saline with Tween-80) was 113 % of control, the T/C (endpoint: median survival time, dose: 400.0 mg/kg/injection, schedule: Q01DX001 (ip), vehicle: steriod suspending solution) was 150 % of control and 155 % of control and the T/C (endpoint: median survival time, dose: 400.0 mg/kg/injection, schedule: Q04DX003 (ip), vehicle: other) was 94 % of control. For the same compound, the T/C (endpoint: median survival time, dose: 512.0 mg/kg/injection, schedule: Q08DX002 (ip), vehicle: saline with Tween-80) was 150 % of control and the T/C (endpoint: median survival time, dose: 700.0 mg/kg/injection, schedule: Q04DX003 (ip), vehicle: Klucel (hydroxypropylcellulose) (HPC)) was 105 % of control and 106 % of control.
